{
  "source": "paper PMC8211464",
  "about": "(Journal of medicinal chemistry, 2021)",
  "key": {"[1]": {"system": "Plasmodium berghei"}, "[2]": {"system": "Pf 3D7", "type": "cell-based", "conditions": "Plasmodium falciparum, 3D7, read-out: Pf3D7 IC50±SD"}, "[3]": {"system": "PfDd2", "type": "cell-based", "conditions": "Plasmodium falciparum, read-out: PfDd2 IC50±SD"}, "[4]": {"system": "HepG2", "conditions": "read-out: HepG2 IC50; cytotoxicity; previously published ref 7 (Leven et al.); cited from earlier work"}, "[5]": {"system": "FCB WT and FCB KD parasite lines", "assay": "Potency against FCB lines with different pfmdr1 copy numbers", "type": "cell-based, Plasmodium falciparum", "conditions": "FCB WT (two copies of pfmdr1) versus FCB KD (one functional copy)"}, "[6]": {"system": "heme detoxification in Pf NF54 trophozoites", "assay": "Pyridine-based cellular heme fractionation assay", "type": "cell-based, Plasmodium falciparum", "conditions": "Pf NF54, 1.5 to 2.5 × IC50"}, "[7]": {"assay": "Snapshot in vivo PK, dried blood spots, LC-MS/MS", "conditions": "mouse, po; for k el: ke"}, "[8]": {"system": "compound 1-resistant clones Fl2-C4 and Fl3-C3", "type": "cell-based, Plasmodium falciparum", "conditions": "clones Fl2-C4 and Fl3-C3, standard 72 h drug-response assay"}, "[9]": {"system": "Pf Dd2 clone B2 (Dd2-B2)", "type": "cell-based, Plasmodium falciparum", "conditions": "triplicate flasks of 2 × 10^9 Dd2-B2 parasites, 3× to 5× IC50"}, "[10]": {"system": "Pf_Polδ", "type": "cell-based, Plasmodium falciparum", "conditions": "Pf_Polδ parasites exposed to 45 nM (3 × IC50)"}, "[11]": {"conditions": "human, 5 h, 1 μM, pH 7.4"}, "[12]": {"conditions": "4 × 30 mg/kg oral, monitored up to 30 days"}},
  "note": "Like-named read-outs stand apart in the source and are kept apart here.",
  "data": [
    {"smiles": "C[C@H]1[C@H](OC(=O)CCC(=O)O)O[C@@H]2O[C@@]3(C)CC[C@H]4[C@H](C)CC[C@@H]1[C@@]24OO3", "note": "[AS, artesunate, reference compound]", "values": [
      {"measurement": "cured (number of parasite-free mice on day 30)", "setting": "[1]; 4 × 30 mg/kg oral", "result": "0/10"}
    ]},
    {"smiles": "CCN(CC)CCCC(C)Nc1ccnc2cc(Cl)ccc12", "note": "(centres unmarked) [CQ, Chloroquine]", "values": [
      {"measurement": "cured (number of parasite-free mice on day 30)", "setting": "[1]; 4 × 30 mg/kg oral", "result": "0/10"},
      {"measurement": "IC50", "setting": "[2]", "result": "6 ± 2", "unit": "nM"},
      {"measurement": "IC50", "setting": "[3]", "result": "230 ± 100", "unit": "nM"}
    ]},
    {"smiles": "N/C(CC(O)c1cc2c(F)cc(F)cc2c2cc(C(F)(F)F)ccc12)=N\\N=C\\c1ccc(F)cc1", "note": "(centres unmarked) [Compound 1]", "values": [
      {"measurement": "cured (number of parasite-free mice on day 30)", "setting": "[1]; 4 × 10 mg/kg oral", "result": "2/3"},
      {"measurement": "cured (number of parasite-free mice on day 30)", "setting": "[1]; 4 × 30 mg/kg oral", "result": "1/3"},
      {"measurement": "MSD (mean survival time)", "setting": "[1]; [12]", "result": 26, "unit": "days"},
      {"measurement": "cured (number of parasite-free mice on day 30)", "setting": "[1]; 4 × 50 mg/kg oral", "result": "1/3"},
      {"measurement": "IC50", "setting": "[4]", "result": 27700, "unit": "nM"},
      {"measurement": "effect of pfmdr1 copy number on sensitivity", "setting": "[5]", "result": "the decrease from two to one pfmdr1 copy caused a further sensitization"}
    ]},
    {"smiles": "COc1ccc(/N=C(\\N)CC(O)c2cc3c(F)cc(F)cc3c3cc(C(F)(F)F)ccc23)cc1.Cl", "note": "(centres unmarked) [Compound 22, (Z)-3-(1,3-Difluoro-6-(trifluoromethyl)phenanthrene-9-yl)-3-hydroxy-N′-(4-methoxyphenyl)propanimidamide Hydrochloride]", "values": [
      {"measurement": "cure rate", "setting": "[1]; 30 mg/kg once daily oral for 4 consecutive days", "result": 33, "unit": "%"},
      {"measurement": "cure rate", "setting": "[1]; 50 mg/kg once daily oral for 4 consecutive days", "result": 66, "unit": "%"},
      {"measurement": "MSD (mean survival time)", "setting": "[1]; 4 × 3 mg/kg oral", "result": "euthanized"},
      {"measurement": "cured (number of parasite-free mice on day 30)", "setting": "[1]; 4 × 3 mg/kg oral", "result": "0/3"},
      {"measurement": "cured (number of parasite-free mice on day 30)", "setting": "[1]; 4 × 10 mg/kg oral", "result": "0/3"},
      {"measurement": "cured (number of parasite-free mice on day 30)", "setting": "[1]; 4 × 30 mg/kg oral", "result": "1/3"},
      {"measurement": "MSD (mean survival time)", "setting": "[1]; [12]", "result": 28, "unit": "days"},
      {"measurement": "cured (number of parasite-free mice on day 30)", "setting": "[1]; 4 × 50 mg/kg oral", "result": "2/3"},
      {"measurement": "signs of toxicity during the in vivo studies", "setting": "[1]; mice, oral doses 3-50 mg/kg", "result": "no obvious signs of toxicity"},
      {"measurement": "inhibition of hemoglobin degradation", "setting": "[6]", "result": "some inhibition of hemoglobin degradation"},
      {"measurement": "effect of pfmdr1 copy number on sensitivity", "setting": "[5]", "result": "the decrease from two to one pfmdr1 copy caused a further sensitization"},
      {"measurement": "AUC(0-inf)", "setting": "[7]; 3 mg/kg", "result": 30, "unit": "ng·h/mL"},
      {"measurement": "AUC(0-t)", "setting": "[7]; 3 mg/kg", "result": 28.9, "unit": "ng·h/mL"},
      {"measurement": "half-life", "setting": "[7]; 3 mg/kg", "result": 5.49, "unit": "h"},
      {"measurement": "k el", "setting": "[7]; 3 mg/kg, single oral dose 3 mg/kg, mouse I", "result": "3.69e-05", "unit": "s⁻¹"},
      {"measurement": "k el", "setting": "[7]; 3 mg/kg, single oral dose 3 mg/kg, mouse II", "result": "3.51e-05", "unit": "s⁻¹"},
      {"measurement": "AUC(0-inf)", "setting": "[7]; 10 mg/kg", "result": 365, "unit": "ng·h/mL"},
      {"measurement": "AUC(0-t)", "setting": "[7]; 10 mg/kg", "result": 361, "unit": "ng·h/mL"},
      {"measurement": "half-life", "setting": "[7]; 10 mg/kg", "result": 5.26, "unit": "h"},
      {"measurement": "k el", "setting": "[7]; 10 mg/kg, single oral dose 10 mg/kg, mouse I", "result": "4.66e-05", "unit": "s⁻¹"},
      {"measurement": "k el", "setting": "[7]; 10 mg/kg, single oral dose 10 mg/kg, mouse II", "result": "3.66e-05", "unit": "s⁻¹"},
      {"measurement": "AUC(0-inf)", "setting": "[7]; 30 mg/kg", "result": 1310, "unit": "ng·h/mL"},
      {"measurement": "AUC(0-t)", "setting": "[7]; 30 mg/kg", "result": 1080, "unit": "ng·h/mL"},
      {"measurement": "half-life", "setting": "[7]; 30 mg/kg", "result": 9.95, "unit": "h"},
      {"measurement": "k el", "setting": "[7]; 30 mg/kg, single oral dose 30 mg/kg, mouse I", "result": "1.94e-05", "unit": "s⁻¹"},
      {"measurement": "k el", "setting": "[7]; 30 mg/kg, single oral dose 30 mg/kg, mouse II", "result": "2.74e-05", "unit": "s⁻¹"},
      {"measurement": "shift in IC50 value in compound 1-resistant clones", "setting": "[8]", "result": 1.6, "unit": "fold"},
      {"measurement": "outcome of resistance selection", "setting": "[9]", "result": "no viable parasites after 60 days"},
      {"measurement": "outcome of resistance selection", "setting": "[10]", "result": "unable to readily generate resistant parasites"}
    ]},
    {"smiles": "Cl.N/C(CC(O)c1c2ccccc2cc2ccccc12)=N\\c1ccc(F)cc1", "note": "(centres unmarked) [Compound 23, (Z)-3-(Anthracene-9-yl)-N′-(4-fluorophenyl)-3-hydroxypropanimidamide Hydrochloride]", "values": [
      {"measurement": "cured (number of parasite-free mice on day 30)", "setting": "[1]; 4 × 50 mg/kg oral", "result": "0/3"},
      {"measurement": "MSD (mean survival time)", "setting": "[1]; 4 × 50 mg/kg oral, monitored up to 30 days", "result": "euthanized"},
      {"measurement": "activity", "setting": "[1]; 4 × 50 mg/kg oral, parasitemia by FACS on day 4, 50 mg/kg", "result": 44, "unit": "%"}
    ]},
    {"smiles": "CCCCN(CCCC)CCC(O)c1cc2c(Cl)cc(Cl)cc2c2cc(C(F)(F)F)ccc12", "note": "(centres unmarked) [HF, Halofantrine]", "values": [
      {"measurement": "plasma protein binding", "setting": "[11]", "result": 100, "unit": "%"}
    ]},
    {"smiles": "CCCCN(CCCC)CC(O)c1cc(Cl)cc2c1-c1ccc(Cl)cc1/C2=C/c1ccc(Cl)cc1", "note": "(centres unmarked) [LUM, Lumefantrine, reference compound]", "values": [
      {"measurement": "cured (number of parasite-free mice on day 30)", "setting": "[1]; 4 × 30 mg/kg oral", "result": "3/3"}
    ]}
  ]
}
